Laboratory results from patent publication US5917056A (priority 1995, dated 1999).

Assays:
[1] = system: tumours; assay: cytotoxic and antitumour activity (statement in words)
[2] = system: A549 (Human NSCLC); assay: Cytotoxicity on tumour cell lines, A549 (Human NSCLC); type: cell-based; settings: exposure time 72 h
Experimental: (§1) Standard conditions: basal medium=RPMI 1640+20 mM HEPES+2 mM L-glutamine.

[3] = system: L1210 (murine leukemia); assay: Cytotoxicity on tumour cell lines, L1210 (murine leukemia); type: cell-based; settings: Mus musculus, exposure time 72 h
Experimental: as §1

[4] = system: A121 (Human ovarian); assay: Cytotoxicity on tumour cell lines, A121 (Human ovarian); type: cell-based; settings: exposure time 72 h
Experimental: as §1

[5] = system: HT-29 (Human colon); assay: Cytotoxicity on tumour cell lines, HT-29 (Human colon); type: cell-based; settings: exposure time 72 h
Experimental: as §1

[6] = system: MCF7 (Human breast); assay: Cytotoxicity on tumour cell lines, MCF7 (Human breast); type: cell-based; settings: exposure time 72 h
Experimental: as §1

[7] = adverse effects / tolerability (statement in words); settings: compared with paclitaxel / prior art
[8] = clinical use, background art; cited from earlier work
[9] = system: tumours; settings: background art, cited from earlier work
[10] = system: MCF7-ADR (resistant); assay: cells; type: cell-based; settings: Homo sapiens, NCI/ADR-RES, 72 h

## CCCCCC(=O)N[C@@H](C=C(C)C)[C@@H](O)C(=O)O[C@@H]1C(C)=C2[C@@H](OC(C)=O)C(=O)[C@@]3(C)[C@H]([C@H](OC(=O)c4ccccc4)[C@@]4(OS(=O)O[C@@H]14)C2(C)C)[C@]1(OC(C)=O)CO[C@@H]1C[C@@H]3O (stereo partly drawn) [Compound 9, 13-[(2R,3S)-3-caproylamino-2-hydroxy-3-isobutenyl-propanoyl]-14β-hydroxybaccatine-III 1,14-sulfite]
[1]
  activity (in words): advantages compared with the compounds of the prior art in terms of both activity and tolerability
[2]
  IC50: 1.8 ± 0.2 nM
[3]
  IC50: 1.8 ± 0.1 nM
[4]
  IC50: 1.1 ± 0.1 nM
[5]
  IC50: 0.5 ± 0.1 nM
[6]
  IC50: 1 ± 0.3 nM
[7]
  drawbacks / tolerability: advantages compared with the compounds of the prior art in terms of both activity and tolerability

## CCCCCC(=O)N[C@@H](C=C(C)C)[C@@H](O)C(=O)O[C@@H]1C(C)=C2[C@@H](OC(C)=O)C(=O)[C@@]3(C)[C@H]([C@H](OC(=O)c4ccccc4)[C@@]4(OC(=S)O[C@@H]14)C2(C)C)[C@]1(OC(C)=O)CO[C@@H]1C[C@@H]3O [Compound 7, 13-[(2R,3S)-3-caproylamino-2-hydroxy-3-isobutenyl-propanoyl]-14β-hydroxybaccatine III 1,14-thiocarbonate III]
[1]
  activity (in words): particularly active

## CC(=O)O[C@H]1C(=O)[C@@]2(C)[C@H]([C@H](OC(=O)c3ccccc3)[C@]34OC(=S)O[C@H]3[C@H](OC(=O)[C@H](O)[C@H](CC(C)C)NC(=O)OC(C)(C)C)C(C)=C1C4(C)C)[C@]1(OC(C)=O)CO[C@@H]1C[C@@H]2O [Compound 5, 13-[(2R,3S)-3-tert-butoxycarbonyl-amino-2-hydroxy-3-isobutyl-propanoyl]-14β-hydroxybaccatine III 1,14-thiocarbonate]
[1]
  activity (in words): particularly active
[2]
  IC50: 2.3 ± 0.3 nM
[3]
  IC50: 0.5 ± 0.1 nM
[4]
  IC50: 0.8 ± 0.3 nM
[5]
  IC50: 0.3 ± 0.1 nM
[6]
  IC50: 1.2 ± 0.2 nM

## CCCCCC(=O)N[C@@H](C=C(C)C)[C@@H](O)C(=O)O[C@@H]1C(C)=C2[C@@H](OC(C)=O)C(=O)[C@@]3(C)[C@H]([C@H](OC(=O)c4ccccc4)[C@@]4(OC(=N)O[C@@H]14)C2(C)C)[C@]1(OC(C)=O)CO[C@@H]1C[C@@H]3O [Compound 8, 13-[(2R,3S)-3-caproylamino-2-hydroxy-3-isobutenyl-propanoyl]-14β-hydroxybaccatine III 1,14-iminocarbonate]
[1]
  activity (in words): advantages compared with the compounds of the prior art in terms of both activity and tolerability
[2]
  IC50: 2.1 ± 0.3 nM
[3]
  IC50: 2.4 ± 0.1 nM
[4]
  IC50: 1.9 ± 0.2 nM
[5]
  IC50: 0.5 ± 0.1 nM
[6]
  IC50: 0.8 ± 0.2 nM
[7]
  drawbacks / tolerability: advantages compared with the compounds of the prior art in terms of both activity and tolerability

## CC(=O)O[C@H]1C(=O)[C@@]2(C)[C@H]([C@H](OC(=O)c3ccccc3)[C@]34OC(=S)O[C@H]3[C@H](OC(=O)[C@H](O)[C@H](C=C(C)C)NC(=O)OC(C)(C)C)C(C)=C1C4(C)C)[C@]1(OC(C)=O)CO[C@@H]1C[C@@H]2O [Compound 6, 13-[(2R,3S)-3-tert-butoxycarbonylamino-2-hydroxy-3-isobutenyl-propanoyl]-14β-hydroxybaccatine III 1,14-thiocarbonate]
[1]
  activity (in words): particularly active

## CC(=O)O[C@H]1C(=O)[C@@]2(C)[C@H]([C@H](OC(=O)c3ccccc3)[C@]3(O)C[C@H](OC(=O)[C@H](O)[C@@H](NC(=O)c4ccccc4)c4ccccc4)C(C)=C1C3(C)C)[C@]1(OC(C)=O)CO[C@@H]1C[C@@H]2O [Paclitaxel, paclitaxel, reference compound]
[8]
  clinical drawbacks: cardiotoxicity
[9]
  induction of resistance: induces resistance quickly
[9]; different forms of human tumours
  anticancerogenic activity: anticancerogenic activity on different forms of human tumours
[2]
  IC50: 5.7 ± 0.5 nM
[3]
  IC50: 7.5 ± 2 nM
[4]
  IC50: 4.7 ± 0.3 nM
[5]
  IC50: 6.9 ± 0.4 nM
[6]
  IC50: 4.8 ± 0.1 nM
[10]
  IC50: 395 ± 8.7 nM
